Assay results as given in US20160355483A1, “COMPOUND BINDING TO PPARG BUT NOT ACTING AS PROMOTER AND PHARMACEUTICAL COMPOSITION FOR TREATING PPARG-RELATED DISEASES CONTAINING SAME AS ACTIVE INGREDIENT” (Hyundai Pharm Co., Ltd., priority 2014, published 2016).

biological target: T1, PPARG (peroxisome proliferator activated receptor-gamma), GST-PPARG-LBD (Homo sapiens, UniProt P37231); assay: LanthaScreen TR-FRET PPARG Competitive Binding Assay; set-up: key: “+” indicates the degree of the binding activity, and as the number of “+” increases, the binding activity is stronger; ++: “+” indicates the degree of the binding activity, and as the number of “+” increases, the binding activity is stronger; +++: “+” indicates the degree of the binding activity, and as the number of “+” increases, the binding activity is stronger; ++++: “+” indicates the degree of the binding activity, and as the number of “+” increases, the binding activity is stronger; conditions: degree of binding activity
T1 construct: 15 μL of 5 nM GST-PPARG-LBD and 5 nM Tb-GST-antibody were added; purchased Invitrogen PV4894
T1 sequence (P37231 238-503 limits assumed): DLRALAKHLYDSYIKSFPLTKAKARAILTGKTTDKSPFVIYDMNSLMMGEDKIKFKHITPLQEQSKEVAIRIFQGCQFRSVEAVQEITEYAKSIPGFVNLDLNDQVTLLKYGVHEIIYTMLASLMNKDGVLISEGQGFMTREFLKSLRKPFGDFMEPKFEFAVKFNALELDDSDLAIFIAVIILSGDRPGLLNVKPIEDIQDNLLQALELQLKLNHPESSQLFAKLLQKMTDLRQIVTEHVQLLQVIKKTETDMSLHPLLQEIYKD
Procedure: The following experiment was performed to evaluate the PPARG (peroxisome proliferator activated receptor-gamma) binding capacity and transcriptional activity of the compounds prepared in the examples of the invention. For the experiment, LanthaScreen™ TR-FRET PPARG Competitive Binding Assay Kit (PV4894, Invitrogen) was used according to the manufacturer's instruction. […] The mixture was loaded in a 384-well plate (Greiner, 784075) by 20 μL per well, followed by reaction at room temperature for 1 hour. Upon completion of the reaction, fluorescence value was measured by using Flexstation 3 (Molecular Devices) with time-resolved fluorescence (RFU) mode (excitation 1: 340 nm, emission 1: 518 nm, excitation 2: 340 nm, emission 2: 488 nm, integration delay 50 μs, integration 400 μs). The results were calculated by using 518 nm RFUs/488 nm RFUs ratio. The activity of the compounds of the invention was compared with that of the vehicle, which was calculated by ratio according to the formula [100%−compound of the example ratio/vehicle ratio]. At this time, the binding activity ratio to rosiglitazone was compared.

SMILES	Binding assay (1 μLM)
O=C(NCc1ccncc1)c1ccc2c(c1)CCCN2Cc1ccc(-c2ccccc2C(=O)O)cc1 [Example 27, 4′-((6-((pyridine-4-ylmethyl)carbamoyl)-3,4-dihydroquinoline-1(2H)-yl)methyl)-[1,1′-biphenyl]-2-carboxylic acid]	+
O=C(NCc1ccccc1)c1ccc2c(c1)CCCN2Cc1ccc(-c2ccccc2C(=O)O)cc1 [Example 28, 4′-((6-(benzylcarbamoyl)-3,4-dihydroquinoline-1(2H)-yl)methyl)-[1,1′-biphenyl]-2-carboxylic acid]	++++
O=C(NCc1ccccc1Br)c1ccc2c(c1)CCCN2Cc1ccc(-c2ccccc2C(=O)O)cc1 [Example 29, 4′-((6-((2-bromobenzyl)carbamoyl)-3,4-dihydroquinoline-1(2H)-yl)methyl)-[1,1′-biphenyl]-2-carboxylic acid]	++++
O=C(NCc1ccc2c(c1)OCCO2)c1ccc2c(c1)CCCN2Cc1ccc(-c2ccccc2C(=O)O)cc1 [Example 30, 4′-((6-(((2,3-dihydrobenzo[b][1,4]dioxin-6-yl)methyl)carbamoyl)-3,4-dihydroquinoline-1(2H)-yl)methyl)-[1,1′-biphenyl]-2-carboxylic acid]	+++
O=C(NCc1ccc(Br)cc1)c1ccc2c(c1)CCCN2Cc1ccc(-c2ccccc2C(=O)O)cc1 [Example 31, 4′-((6-((4-bromobenzyl)carbamoyl)-3,4-dihydroquinoline-1 (2H)-yl)methyl)-[1,1′-biphenyl]-2-carboxylic acid]	++++
O=C(NCc1cccc(OC(F)(F)F)c1)c1ccc2c(c1)CCCN2Cc1ccc(-c2ccccc2C(=O)O)cc1 [Example 32, 4′-((6-((3-(trifluoromethoxy)benzyl)carbamoyl)-3,4-dihydroquinoline-1(2H)-yl)methyl)-[1,1′-biphenyl]-2-carboxylic acid]	+++
C[C@H](NC(=O)c1ccc2c(c1)CCCN2Cc1ccc(-c2ccccc2C(N)=O)cc1)c1ccc(C(F)(F)F)cc1 [Example 33, (S)-1-((2′-carbamoyl-[1,1′-biphenyl]-4-yl)methyl)-N-(1-(4-(trifluoromethyl)phenyl)ethyl)-1,2,3,4-tetrahydroquinoline-6-carboxamide]	+++
C[C@H](NC(=O)c1ccc2c(c1)CCCN2Cc1ccc(-c2ccccc2C(N)=O)cc1)c1ccc(OC(F)(F)F)cc1 [Example 34, (S)-1-((2′-carbamoyl-[1,1′-biphenyl]-4-yl)methyl)-N-(1-(4-(trifluoromethoxy)phenyl)ethyl)-1,2,3,4-tetrahydroquinoline-6-carboxamide]	++++
C[C@H](NC(=O)c1ccc2c(c1)CCCN2Cc1ccc(-c2ccccc2C(N)=O)cc1)c1cccc(Cl)c1 [Example 35, (S)-1-((2′-carbamoyl-[1,1′-biphenyl]-4-yl)methyl)-N-(1-(3-chlorophenyl)ethyl)-1,2,3,4-tetrahydroquinoline-6-carboxamide]	+++
C[C@H](NC(=O)c1ccc2c(c1)CCCN2Cc1ccc(-c2ccccc2C(N)=O)cc1)c1ccc(Br)cc1 [Example 37, (S)—N-(1-(4-bromophenyl)ethyl)-1-((2′-carbamoyl-[1,1′-biphenyl]-4-yl)methyl)-1,2,3,4-tetrahydroquinoline-6-carboxamide]	+++
C[C@H](NC(=O)c1ccc2c(c1)CCCN2Cc1ccc(-c2ccccc2C(N)=O)cc1)c1cccc2ccccc12 [Example 38, (S)-1-((2′-carbamoyl-[1,1′-biphenyl]-4-yl)methyl)-N-(1-(naphthalene-1-yl)ethyl)-1,2,3,4-tetrahydroquinoline-6-carboxamide]	++
C[C@H](NC(=O)c1ccc2c(c1)CCCN2Cc1ccc(-c2ccccc2C(N)=O)cc1)c1ccc(F)c(F)c1 [Example 39, (S)-1-((2′-carbamoyl-[1,1′-biphenyl]-4-yl)methyl)-N-(1-(3,4-difluorophenyl)ethyl)-1,2,3,4-tetrahydroquinoline-6-carboxamide]	+++
